Converted amounts (≈) assume the structure as drawn.
How the values were obtained:
Type in all cases: functional
[1] = test system: Mycobacterium tuberculosis; assay: Minimum inhibitory concentration tested against Mycobacterium tuberculosis resistant clinical isolates; Range:1-4 ug/ml
[2] = test system: Mycobacterium tuberculosis; assay: Minimum inhibitory concentration tested against Mycobacterium tuberculosis resistant clinical isolates
[3] = test system: Mycobacterium tuberculosis; assay: Minimum inhibitory concentration tested against Mycobacterium tuberculosis resistant clinical isolates; Range 8-16 ug/mL
[4] = test system: Mycobacterium tuberculosis; assay: Minimum inhibitory concentration tested against Mycobacterium tuberculosis resistant clinical isolates; Range 8->16 ug/mL

SMILES | MIC [2] [µg/mL] | other results
O=C1c2ccccc2C(=O)N1CCCCCCN1CCN(CC/N=c2/cc3n(-c4ccc(Cl)cc4)c4ccccc4nc-3cc2Nc2ccc(Cl)cc2)CC1 | – | MIC [1]: 4 µg/mL (≈ 5.18 µM)
O=C1c2cccc3cccc(c23)C(=O)N1CCCN1CCN(CC/N=c2/cc3n(-c4ccc(Cl)cc4)c4ccccc4nc-3cc2Nc2ccc(Cl)cc2)CC1 | > 16 | –
O=C1c2ccccc2C(=O)N1CCCCN1CCN(CC/N=c2/cc3n(-c4ccc(Cl)cc4)c4ccccc4nc-3cc2Nc2ccc(Cl)cc2)CC1 | > 16 | –
O=C1c2cccc3cccc(c23)C(=O)N1CCCCCCN1CCN(CC/N=c2/cc3n(-c4ccc(Cl)cc4)c4ccccc4nc-3cc2Nc2ccc(Cl)cc2)CC1 | – | MIC [3]: 16 µg/mL (≈ 19.4 µM)
O=C1c2cccc3cccc(c23)C(=O)N1CCCCCN1CCN(CC/N=c2/cc3n(-c4ccc(Cl)cc4)c4ccccc4nc-3cc2Nc2ccc(Cl)cc2)CC1 | > 16 | –
O=C1c2cccc3cccc(c23)C(=O)N1CCCCN1CCN(CC/N=c2/cc3n(-c4ccc(Cl)cc4)c4ccccc4nc-3cc2Nc2ccc(Cl)cc2)CC1 | > 16 | –
O=C1c2ccccc2C(=O)N1CCCCCN1CCN(CC/N=c2/cc3n(-c4ccc(Cl)cc4)c4ccccc4nc-3cc2Nc2ccc(Cl)cc2)CC1 | – | MIC [1]: 4 µg/mL (≈ 5.27 µM)
O=C1c2ccccc2C(=O)N1CCCN1CCN(CC/N=c2/cc3n(-c4ccc(Cl)cc4)c4ccccc4nc-3cc2Nc2ccc(Cl)cc2)CC1 | > 16 | –
NNC(=O)c1ccncc1 [ISONIAZID] | – | MIC [4]: > 16 µg/mL
